Measured values from ChEMBL document CHEMBL3045611, “Identification of the G143A mutation associated with QoI resistance in Cercospora beticola field isolates from Michigan, United States” (Pest Manag Sci, 2013).
≈ marks a conversion by molar mass, not a printed value.

Experiments:
Assay type in all cases: functional, organism-based
Cercospora beticola [1] = test: Antifungal activity against Cercospora beticola isolate 11-1036-2 expressing cytb with alanine at codon 143 assessed as reduction in spore germination
Cercospora beticola [2] = test: Antifungal activity against Cercospora beticola isolate 11-1026-1 expressing cytb with alanine at codon 143 assessed as reduction in spore germination
Cercospora beticola [3] = test: Antifungal activity against Cercospora beticola isolate 11-1042-2 expressing cytb with alanine at codon 143 assessed as reduction in spore germination
Cercospora beticola [4] = test: Antifungal activity against Cercospora beticola isolate 11-1028-2 expressing cytb with alanine at codon 143 assessed as reduction in spore germination
Cercospora beticola [5] = test: Antifungal activity against Cercospora beticola isolate 98-12-M expressing cytb with glycine at codon 143 assessed as reduction in spore germination
Cercospora beticola [6] = test: Antifungal activity against Cercospora beticola isolate 11-1009-1 expressing cytb with alanine at codon 143 assessed as reduction in spore germination
Cercospora beticola [7] = test: Antifungal activity against Cercospora beticola isolate 11-1038-2 expressing cytb with alanine at codon 143 assessed as reduction in spore germination
Cercospora beticola [8] = test: Antifungal activity against Cercospora beticola isolate 11-1008-1 expressing cytb with alanine at codon 143 assessed as reduction in spore germination
Cercospora beticola [9] = test: Antifungal activity against Cercospora beticola isolate 98-150-M expressing cytb with glycine at codon 143 assessed as reduction in spore germination
Cercospora beticola [10] = test: Antifungal activity against Cercospora beticola isolate 98-10-M expressing cytb with glycine at codon 143 assessed as reduction in spore germination
Cercospora beticola [11] = test: Antifungal activity against Cercospora beticola isolate 11-1005-2 expressing cytb with alanine at codon 143 assessed as reduction in spore germination
Cercospora beticola [12] = test: Antifungal activity against Cercospora beticola isolate 11-1028-1 expressing cytb with alanine at codon 143 assessed as reduction in spore germination
Cercospora beticola [13] = test: Antifungal activity against Cercospora beticola isolate 11-1006-2 expressing cytb with alanine at codon 143 assessed as reduction in spore germination
Cercospora beticola [14] = test: Antifungal activity against Cercospora beticola isolate 11-1016-1 expressing cytb with alanine at codon 143 assessed as reduction in spore germination
Cercospora beticola [15] = test: Antifungal activity against Cercospora beticola isolate 11-1042-1 expressing cytb with alanine at codon 143 assessed as reduction in spore germination
Cercospora beticola [16] = test: Antifungal activity against Cercospora beticola isolate 11-1027-1 expressing cytb with alanine at codon 143 assessed as reduction in spore germination
Cercospora beticola [17] = test: Antifungal activity against Cercospora beticola isolate 99-233-3-M expressing cytb with glycine at codon 143 assessed as reduction in spore germination
Cercospora beticola [18] = test: Antifungal activity against Cercospora beticola isolate 11-1046-2 expressing cytb with alanine at codon 143 assessed as reduction in spore germination
Cercospora beticola [19] = test: Antifungal activity against Cercospora beticola isolate 98-9-M expressing cytb with glycine at codon 143 assessed as reduction in spore germination
Cercospora beticola [20] = test: Antifungal activity against Cercospora beticola isolate 11-1014-1 expressing cytb with alanine at codon 143 assessed as reduction in spore germination
Cercospora beticola [21] = test: Antifungal activity against Cercospora beticola isolate 11-1027-2 expressing cytb with alanine at codon 143 assessed as reduction in spore germination
Cercospora beticola [22] = test: Antifungal activity against Cercospora beticola isolate 11-1044-1 expressing cytb with alanine at codon 143 assessed as reduction in spore germination
Cercospora beticola [23] = test: Antifungal activity against Cercospora beticola isolate 11-1015-1 expressing cytb with alanine at codon 143 assessed as reduction in spore germination
Cercospora beticola [24] = test: Antifungal activity against Cercospora beticola isolate 11-1007-2 expressing cytb with alanine at codon 143 assessed as reduction in spore germination
Cercospora beticola [25] = test: Antifungal activity against Cercospora beticola isolate 11-1005-1 expressing cytb with alanine at codon 143 assessed as reduction in spore germination
Cercospora beticola [26] = test: Antifungal activity against Cercospora beticola isolate 99-521-29-M expressing cytb with glycine at codon 143 assessed as reduction in spore germination
Cercospora beticola [27] = test: Antifungal activity against Cercospora beticola isolate 11-1007-1 expressing cytb with alanine at codon 143 assessed as reduction in spore germination
Cercospora beticola [28] = test: Antifungal activity against Cercospora beticola isolate 11-1043-2 expressing cytb with alanine at codon 143 assessed as reduction in spore germination
Cercospora beticola [29] = test: Antifungal activity against Cercospora beticola isolate 11-1040-1 expressing cytb with alanine at codon 143 assessed as reduction in spore germination
Cercospora beticola [30] = test: Antifungal activity against Cercospora beticola isolate 98-19-M expressing cytb with glycine at codon 143 assessed as reduction in spore germination
Cercospora beticola [31] = test: Antifungal activity against Cercospora beticola isolate 11-1045-2 expressing cytb with alanine at codon 143 assessed as reduction in spore germination
Cercospora beticola [32] = test: Antifungal activity against Cercospora beticola isolate 11-1022-1 expressing cytb with alanine at codon 143 assessed as reduction in spore germination
Cercospora beticola [33] = test: Antifungal activity against Cercospora beticola isolate 11-1015-2 expressing cytb with alanine at codon 143 assessed as reduction in spore germination
Cercospora beticola [34] = test: Antifungal activity against Cercospora beticola isolate 11-1039-1 expressing cytb with alanine at codon 143 assessed as reduction in spore germination
Cercospora beticola [35] = test: Antifungal activity against Cercospora beticola isolate 11-1037-1 expressing cytb with alanine at codon 143 assessed as reduction in spore germination
Cercospora beticola [36] = test: Antifungal activity against Cercospora beticola isolate 11-1004-1 expressing cytb with alanine at codon 143 assessed as reduction in spore germination
Cercospora beticola [37] = test: Antifungal activity against Cercospora beticola isolate 11-1003-2 expressing cytb with alanine at codon 143 assessed as reduction in spore germination
Cercospora beticola [38] = test: Antifungal activity against Cercospora beticola isolate 11-1038-1 expressing cytb with alanine at codon 143 assessed as reduction in spore germination
Cercospora beticola [39] = test: Antifungal activity against Cercospora beticola isolate 98-101-5-M expressing cytb with glycine at codon 143 assessed as reduction in spore germination
Cercospora beticola [40] = test: Antifungal activity against Cercospora beticola isolate 11-1041-1 expressing cytb with alanine at codon 143 assessed as reduction in spore germination
Cercospora beticola [41] = test: Antifungal activity against Cercospora beticola isolate 11-1035-2 expressing cytb with alanine at codon 143 assessed as reduction in spore germination
Cercospora beticola [42] = test: Antifungal activity against Cercospora beticola isolate 98-13-M expressing cytb with glycine at codon 143 assessed as reduction in spore germination
Cercospora beticola [43] = test: Antifungal activity against Cercospora beticola isolate 11-1026-2 expressing cytb with alanine at codon 143 assessed as reduction in spore germination
Cercospora beticola [44] = test: Antifungal activity against Cercospora beticola isolate 11-1046-1 expressing cytb with alanine at codon 143 assessed as reduction in spore germination
Cercospora beticola [45] = test: Antifungal activity against Cercospora beticola isolate 11-1037-2 expressing cytb with alanine at codon 143 assessed as reduction in spore germination
Cercospora beticola [46] = test: Antifungal activity against Cercospora beticola isolate 11-1022-2 expressing cytb with alanine at codon 143 assessed as reduction in spore germination
Cercospora beticola [47] = test: Antifungal activity against Cercospora beticola isolate 11-1040-2 expressing cytb with alanine at codon 143 assessed as reduction in spore germination
Cercospora beticola [48] = test: Antifungal activity against Cercospora beticola isolate 11-1036-1 expressing cytb with alanine at codon 143 assessed as reduction in spore germination
Cercospora beticola [49] = test: Antifungal activity against Cercospora beticola isolate 11-1044-2 expressing cytb with alanine at codon 143 assessed as reduction in spore germination

Question: What does the source list for `CO/N=C(\C(=O)OC)c1ccccc1CO/N=C(\C)c1cccc(C(F)(F)F)c1`?
Answer: EC50 (Cercospora beticola [1]): 8.15 µg/mL (≈ 20 µM); EC50 (Cercospora beticola [2]): 25.9 µg/mL (≈ 63.5 µM); EC50 (Cercospora beticola [3]): 2.36 µg/mL (≈ 5.79 µM); EC50 (Cercospora beticola [4]): 4.96 µg/mL (≈ 12.2 µM); EC50 (Cercospora beticola [5]): 5 ng/mL (≈ 0.0122 µM); EC50 (Cercospora beticola [6]): 39.4 µg/mL (≈ 96.4 µM); EC50 (Cercospora beticola [7]): 35.5 µg/mL (≈ 86.9 µM); EC50 (Cercospora beticola [8]): 7.49 µg/mL (≈ 18.4 µM); EC50 (Cercospora beticola [9]): 4 ng/mL (≈ 0.00979 µM); EC50 (Cercospora beticola [10]): 1 ng/mL (≈ 0.00245 µM); EC50 (Cercospora beticola [11]): 3.25 µg/mL (≈ 7.96 µM); EC50 (Cercospora beticola [12]): 7.62 µg/mL (≈ 18.7 µM); EC50 (Cercospora beticola [13]): 8.46 µg/mL (≈ 20.7 µM); EC50 (Cercospora beticola [14]): 5.89 µg/mL (≈ 14.4 µM); EC50 (Cercospora beticola [15]): 8.83 µg/mL (≈ 21.6 µM); EC50 (Cercospora beticola [16]): 29.7 µg/mL (≈ 72.8 µM); EC50 (Cercospora beticola [17]): 4 ng/mL (≈ 0.00979 µM); EC50 (Cercospora beticola [18]): 8.37 µg/mL (≈ 20.5 µM); EC50 (Cercospora beticola [19]): 4 ng/mL (≈ 0.00979 µM); EC50 (Cercospora beticola [20]): 4.54 µg/mL (≈ 11.1 µM); EC50 (Cercospora beticola [21]): 6.06 µg/mL (≈ 14.8 µM); EC50 (Cercospora beticola [22]): 13.8 µg/mL (≈ 33.9 µM); EC50 (Cercospora beticola [23]): 7.3 µg/mL (≈ 17.9 µM); EC50 (Cercospora beticola [24]): 6.84 µg/mL (≈ 16.8 µM); EC50 (Cercospora beticola [25]): 9.54 µg/mL (≈ 23.4 µM); EC50 (Cercospora beticola [26]): 5 ng/mL (≈ 0.0122 µM); EC50 (Cercospora beticola [27]): 7.65 µg/mL (≈ 18.7 µM); EC50 (Cercospora beticola [28]): 3.27 µg/mL (≈ 8 µM); EC50 (Cercospora beticola [29]): 7.64 µg/mL (≈ 18.7 µM); EC50 (Cercospora beticola [30]): 5 ng/mL (≈ 0.0122 µM); EC50 (Cercospora beticola [31]): 7.02 µg/mL (≈ 17.2 µM); EC50 (Cercospora beticola [32]): 6.86 µg/mL (≈ 16.8 µM); EC50 (Cercospora beticola [33]): 7.79 µg/mL (≈ 19.1 µM); EC50 (Cercospora beticola [34]): 6.79 µg/mL (≈ 16.6 µM); EC50 (Cercospora beticola [35]): 6.78 µg/mL (≈ 16.6 µM); EC50 (Cercospora beticola [36]): 6.66 µg/mL (≈ 16.3 µM); EC50 (Cercospora beticola [37]): 1 µg/mL (≈ 2.45 µM); EC50 (Cercospora beticola [38]): 19.9 µg/mL (≈ 48.6 µM); EC50 (Cercospora beticola [39]): 6 ng/mL (≈ 0.0147 µM); EC50 (Cercospora beticola [40]): 6.09 µg/mL (≈ 14.9 µM); EC50 (Cercospora beticola [41]): 6.36 µg/mL (≈ 15.6 µM); EC50 (Cercospora beticola [42]): 6 ng/mL (≈ 0.0147 µM); EC50 (Cercospora beticola [43]): 8.55 µg/mL (≈ 20.9 µM); EC50 (Cercospora beticola [44]): 5.48 µg/mL (≈ 13.4 µM); EC50 (Cercospora beticola [45]): 4.24 µg/mL (≈ 10.4 µM); EC50 (Cercospora beticola [46]): 4.98 µg/mL (≈ 12.2 µM); EC50 (Cercospora beticola [47]): 13.7 µg/mL (≈ 33.4 µM); EC50 (Cercospora beticola [48]): 3.62 µg/mL (≈ 8.88 µM); EC50 (Cercospora beticola [49]): 8.56 µg/mL (≈ 21 µM)
